Test results: patent US8846704B2, “Thiopyrimidine-based compounds and uses thereof” (YM Biosciences Austraila Pty Ltd, priority 2007, dated 2014)

How the values were obtained:
BaF3 TELJAK3 cells = biological target: T1, BaF3 TELJAK3 cells (Homo sapiens, UniProt P52333); assay: Cellular screening, BaF3 TEL:JAK3 cells, Alamar Blue; type: cell-based; conditions: 40 hr, read-out: BafT_J3 IC50_nM
T1 construct: fused on or other part: TEL (ETV6) N-terminal part, coding nucleotides 1-487, serves as the oligomerising partner; It is fused through a Sal I site to the JAK3 kinase domain and expressed from pTRE2 in BaF3 cells bearing pTET-off; P41212 (Transcription factor ETV6)
T1 sequence (P52333 1-1124): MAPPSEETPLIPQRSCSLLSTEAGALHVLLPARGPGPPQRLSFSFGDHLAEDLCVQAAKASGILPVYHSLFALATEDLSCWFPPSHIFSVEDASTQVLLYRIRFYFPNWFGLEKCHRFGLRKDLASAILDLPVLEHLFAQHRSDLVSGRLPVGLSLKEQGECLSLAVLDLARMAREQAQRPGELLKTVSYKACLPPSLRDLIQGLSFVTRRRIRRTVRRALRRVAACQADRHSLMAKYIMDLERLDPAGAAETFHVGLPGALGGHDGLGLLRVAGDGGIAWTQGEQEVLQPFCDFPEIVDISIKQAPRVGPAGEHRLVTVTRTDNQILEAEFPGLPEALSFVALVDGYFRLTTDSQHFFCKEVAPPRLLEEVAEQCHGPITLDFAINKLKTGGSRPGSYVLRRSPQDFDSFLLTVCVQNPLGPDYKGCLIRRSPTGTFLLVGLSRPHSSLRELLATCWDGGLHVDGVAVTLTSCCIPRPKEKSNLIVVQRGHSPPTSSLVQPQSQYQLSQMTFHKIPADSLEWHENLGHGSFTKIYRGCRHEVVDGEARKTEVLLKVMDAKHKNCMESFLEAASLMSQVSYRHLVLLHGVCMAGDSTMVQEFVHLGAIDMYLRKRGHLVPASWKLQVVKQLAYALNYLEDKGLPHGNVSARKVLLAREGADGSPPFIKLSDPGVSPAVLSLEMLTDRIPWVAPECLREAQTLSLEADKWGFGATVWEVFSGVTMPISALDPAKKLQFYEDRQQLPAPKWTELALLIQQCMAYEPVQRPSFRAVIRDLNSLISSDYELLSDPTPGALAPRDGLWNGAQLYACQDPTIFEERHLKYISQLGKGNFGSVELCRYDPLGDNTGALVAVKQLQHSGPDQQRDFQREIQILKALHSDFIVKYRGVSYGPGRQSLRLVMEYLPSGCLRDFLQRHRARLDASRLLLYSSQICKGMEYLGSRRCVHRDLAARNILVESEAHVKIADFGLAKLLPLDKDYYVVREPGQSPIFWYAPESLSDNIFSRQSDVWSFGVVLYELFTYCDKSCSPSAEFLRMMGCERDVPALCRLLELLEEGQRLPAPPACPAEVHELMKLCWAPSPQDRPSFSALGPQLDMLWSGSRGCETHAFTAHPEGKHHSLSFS
Method: (§1) For screening purposes, compounds were diluted in 96 well plates at a concentration of 20 μM. Plates were warmed at 37° C. for 30 minutes before the assay was performed.
(§2) The coding region encompassing nucleotides 1-487 of TEL was amplified by PCR using the oligonucleotides STEL (5′-GGAGGATCCTGATCTCTCTCGCTGTGAGAC-3′) [SEQ ID NO 14] and 3TEL (5′-AGGC GTCGACTTCTTCTTCATGGTTCTG-3′) [SEQ ID NO 15] and U937 mRNA as a template. A […] restriction site was incorporated into the STEL primer, and a Sal I restriction site was incorporated into the 3TEL primer. The regions encompassing the kinase domain of JAK2 (nucleotides 2994-3914; JAK2F 5′-ACGC GTCGACGGTGCCTTTGAAGACCGGGAT-3′ [SEQ ID NO 16]; JAK2R 5′-ATAGTTTAGCGGCCGCTCAGAATGAAGGTCATTT-3′) [SEQ ID NO 17] and JAK3 (nucleotides 2520-3469; JAK3F 5′-GAAGTCGACTATGCCTGCCAAGACCCCACGATCTT-3′) [SEQ ID NO 18] were generated by PCR using Taq DNA polymerase (Gibco/BRL) and […] as a template. A Sal I restriction site was incorporated into the forward primer of JAK2 and JAK3, a Not I site was incorporated into the JAK2 reverse primer and a Xba I site was added to the reverse primer of JAK3.
The TEL/Jak3 fusion was prepared by ligation of the JAK3 Sal I/Not I cleaved kinase domain PCR product with the BamH I/Sal I restriction digested TEL product, followed by ligation of the ligation product into the BamH I/Not I digested pTRE2, to give the TEL/Jak3 fusion plasmid pTELJAK3.
(§3) The growth factor dependant myelomonocytic cell line BaF3 bearing the pTET-off plasmid (Clontech) was transfected with either pTELJAK2 or pTELJAK3, and the transfected cells were selected for growth-factor independent cell growth. The BaF3 wild-type cells were cultured in DMEM containing 10% FCS, 10% WEHI 3B conditioned medium. The BaF3 TELJAK cells ([…]) were cultured in DMEM 10% Tet-System Approved FBS (without WEHI 3B conditioned medium).
(§4) Cell suspensions were prepared by harvesting cells from culture (the cells used in this test were in late log phase growth with high viability.) Cells were diluted in the appropriate growth medium, as described above, to 1.1× final concentration (from 50,000 cell/mL to 200,000 cell/mL, depending on cell line).
(§5) Compounds to be tested were added (10 μL, 10× final concentration) to a flat bottomed 96-well plate. The cellular suspension (90 μL per well) was then added, and the plate incubated for 40 hr at 37° C., 5% CO2. Alamar Blue 10 μL per well was added and the plates returned to the incubator for a further 4-6 hours. The plates were then read at 544 nm.

[1] = biological target: T2, BaF3 TELJAK2 cells (BafT_J2) (Homo sapiens, UniProt O60674); assay: Cellular screening, BaF3 TEL:JAK2 cells, Alamar Blue; type: cell-based; conditions: 40 hr, read-out: BafT_J2 IC50_nM
T2 construct: fused on or other part: TEL (ETV6) N-terminal part, coding nucleotides 1-487, serves as the oligomerising partner; It is fused through a Sal I site to the JAK2 kinase domain and expressed from pTRE2 in BaF3 cells bearing pTET-off; P41212 (Transcription factor ETV6)
T2 sequence (O60674 whole entry, change not shown, the tested form may be a part): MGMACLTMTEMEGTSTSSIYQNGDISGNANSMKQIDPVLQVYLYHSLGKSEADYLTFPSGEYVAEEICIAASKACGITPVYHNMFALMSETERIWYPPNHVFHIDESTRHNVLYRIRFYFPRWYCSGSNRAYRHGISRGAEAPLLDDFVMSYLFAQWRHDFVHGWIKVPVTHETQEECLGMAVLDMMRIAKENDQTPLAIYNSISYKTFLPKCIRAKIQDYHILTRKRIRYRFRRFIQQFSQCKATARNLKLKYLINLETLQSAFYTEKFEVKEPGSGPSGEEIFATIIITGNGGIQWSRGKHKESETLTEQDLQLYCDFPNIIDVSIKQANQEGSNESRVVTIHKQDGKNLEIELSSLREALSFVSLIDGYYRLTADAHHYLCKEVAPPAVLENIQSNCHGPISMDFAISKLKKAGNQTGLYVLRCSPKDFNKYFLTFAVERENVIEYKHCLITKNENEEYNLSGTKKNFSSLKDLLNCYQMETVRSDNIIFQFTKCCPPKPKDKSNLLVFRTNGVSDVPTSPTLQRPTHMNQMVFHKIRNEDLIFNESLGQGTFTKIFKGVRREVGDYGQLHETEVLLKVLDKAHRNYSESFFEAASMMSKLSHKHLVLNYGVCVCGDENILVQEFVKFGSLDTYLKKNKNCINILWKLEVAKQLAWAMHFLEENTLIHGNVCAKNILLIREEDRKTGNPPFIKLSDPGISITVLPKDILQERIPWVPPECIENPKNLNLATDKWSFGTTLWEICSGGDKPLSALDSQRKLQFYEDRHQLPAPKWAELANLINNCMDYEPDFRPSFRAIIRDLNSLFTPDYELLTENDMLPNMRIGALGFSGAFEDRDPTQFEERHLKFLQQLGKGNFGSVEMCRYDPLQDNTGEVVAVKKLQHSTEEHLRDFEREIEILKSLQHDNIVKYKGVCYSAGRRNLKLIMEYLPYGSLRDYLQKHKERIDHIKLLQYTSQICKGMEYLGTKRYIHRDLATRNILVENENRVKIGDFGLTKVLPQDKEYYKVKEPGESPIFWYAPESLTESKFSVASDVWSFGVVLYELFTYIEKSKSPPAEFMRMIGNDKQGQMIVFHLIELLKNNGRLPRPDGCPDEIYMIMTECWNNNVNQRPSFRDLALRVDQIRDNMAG
Method: as §1, §2
A TEL/Jak2 fusion was generated by digestion of the TELPCR product with BamH I/Sal I restriction enzymes, digestion of the JAK2 PCR product with Sal I/Not I restriction enzymes, followed by ligation and subcloning of the ligation product into the mammalian expression Vector pTRE 2 (Clontech), which was prepared by digestion with BamH I-Not I restriction enzymes, to give the TEL/Jak2 fusion plasmid pTELJAK2.
as §3, §4, §5

| Structure (SMILES) | GI50 (BaF3 TELJAK3 cells) [µM] | GI50 [1] [µM] |
| --- | --- | --- |
| C=CC(=O)Nc1cccc(Nc2nccc(Sc3ccccn3)n2)c1 [Compound 2, N-(3-(4-(pyridin-2-ylthio)pyrimidin-2-ylamino)phenyl)acrylamide] | < 1 | < 5 |
| CC#CC(=O)Nc1cccc(Nc2nccc(SC)n2)c1 [Compound 8, N-(3-(4-(methylthio)pyrimidin-2-ylao)phenyl)but-2-ynamide] | < 5 | < 5 |
| C=CC(=O)Nc1ccc(Nc2nccc(SC)n2)cc1 [Compound 13, N-(4-(4-(methylthio)pyrimidin-2-ylao)phenyl)acrylamide] | > 20 | < 20 |
| C=CC(=O)Nc1cccc(Nc2nccc(Sc3ccccc3)n2)c1 [Compound 16, N-(3-(4-(phenylthio)pyrimidin-2-ylamino)phenyl)acrylamide] | < 1 | < 5 |
| C=CC(=O)Nc1cccc(Sc2ccnc(Nc3ccc(N4CCOCC4)cc3)n2)c1 [Compound 23, N-(3-(2-(4-morpholinophenylamino)pyrimidin-4-ylthio)phenyl)acrylamide] | < 1 | < 20 |
| N#CCC(=O)Nc1cccc(Sc2ccnc(Nc3ccc(N4CCOCC4)cc3)n2)c1 [Compound 24, N-(3-(2-(4-morpholinophenylamino)pyrimidin-4-ylthio)phenyl)-2-cyanoacetamide] | < 20 | < 20 |
| C=CC(=O)Nc1ccc(Sc2ccnc(Nc3ccc(N4CCOCC4)cc3)n2)cc1 [Compound 25, N-(4-(2-(4-morpholinophenylamino)pyrimidin-4-ylthio)phenyl)acrylamide] | < 1 | > 20 |
| Nc1ccc(Sc2ccnc(Nc3ccc(N4CCOCC4)cc3)n2)cc1 [Compound 27, 4-(4-aophenylthio)-N-(4-morpholinophenyl)pyrimidin-2-ae] | < 20 | > 20 |
| C=CC(=O)Nc1cccc(Nc2nccc(Sc3ccc(OC)cc3)n2)c1 [Compound 42, N-(3-(4-(4-methoxyphenylthio)pyrimidin-2-ylao)phenyl)acrylamide] | < 5 | < 20 |
| OCc1cccc(Sc2ccnc(Nc3ccc(N4CCOCC4)cc3)n2)c1 [Compound 62, (3-(2-(4-Morpholinophenylamino)pyrimidin-4-ylthio)phenyl)methanol] | < 20 | < 20 |
| OCc1ccc(Sc2ccnc(Nc3ccc(N4CCOCC4)cc3)n2)cc1 [Compound 67, (4-(2-(4-morpholinophenylao)pyrimidin-4-ylthio)phenyl)methanol] | < 20 | < 20 |
| N#CCNCc1cccc(Sc2ccnc(Nc3ccc(N4CCOCC4)cc3)n2)c1 [Compound 68, 2-(3-(2-(4-morpholinophenylao)pyrimidin-4-ylthio)benzylao)acetonitrile] | < 20 | < 20 |
| NCc1cccc(Sc2ccnc(Nc3ccc(N4CCOCC4)cc3)n2)c1 [Compound 75, 4-(3-(aomethyl)phenylthio)-N-(4-morpholinophenyl)pyrimidin-2-ae] | < 20 | < 20 |
| C=CC(=O)Nc1ccc(Sc2ccnc(Nc3cccc(N4CCOCC4)c3)n2)cc1 [Compound 77, N-(4-(2-(3-morpholinophenylao)pyrimidin-4-ylthio)phenyl)acrylamide] | < 1 | < 5 |
| C=CC(=O)Nc1ccc(Sc2ccnc(Nc3cc(C)cc(C)c3)n2)cc1 [Compound 82, N-(4-(2-(3,5-dimethylphenylao)pyrimidin-4-ylthio)phenyl)acrylamide] | < 5 | < 5 |
| c1cc(Sc2ccc(Cn3cnnn3)cc2)nc(Nc2ccc(N3CCOCC3)cc2)n1 [Compound 109, 4-(4-((1H-tetrazol-1-yl)methyl)phenylthio)-N-(4-morpholinophenyl)pyrimidin-2-ae] | < 20 | < 20 |
| C=CC(=O)Nc1cccc(Sc2ccnc(Nc3cccc(N4CCOCC4)c3)n2)c1 [Compound 110, N-(3-(2-(3-morpholinophenylao)pyrimidin-4-ylthio)phenyl)acrylamide] | < 1 | < 20 |
| C=CC(=O)NCc1ccc(Sc2ccnc(Nc3ccc(N4CCOCC4)cc3)n2)cc1 [Compound 111, N-(4-(2-(4-morpholinophenylamino)pyrimidin-4-ylthio)benzyl)acrylamide] | < 1 | < 20 |
| C=CC(=O)NCc1cccc(Sc2ccnc(Nc3ccc(N4CCOCC4)cc3)n2)c1 [Compound 112, N-(3-(2-(4-morpholinophenylamino)pyrimidin-4-ylthio)benzyl)acrylamide] | < 20 | < 20 |
| C=CC(=O)Nc1ccc(Sc2ccnc(Nc3ccc(N4CCOCC4)cc3)n2)cc1OC [Compound 123, N-(2-methoxy-4-(2-(4-morpholinophenylao)pyrimidin-4-ylthio)phenyl)acrylamide] | < 5 | < 5 |
| N#Cc1nnnn1Cc1ccc(Sc2ccnc(Nc3ccc(N4CCOCC4)cc3)n2)cc1 [Compound 155, 1-(4-(2-(4-morpholinophenylao)pyrimidin-4-ylthio)benzyl)-1H-tetrazole-5-carbonitrile] | < 20 | < 20 |
| N#Cc1nnn(Cc2ccc(Sc3ccnc(Nc4ccc(N5CCOCC5)cc4)n3)cc2)n1 [Compound 156, 2-(4-(2-(4-morpholinophenylao)pyrimidin-4-ylthio)benzyl)-2H-tetrazole-5-carbonitrile] | < 5 | < 5 |
| Cc1cc(N)ccc1Sc1nc(Nc2ccc(N3CCOCC3)cc2)ncc1C [Compound 162, 4-(4-ao-2-methylphenylthio)-5-methyl-N-(4-morpholinophenyl)pyrimidin-2-ae] | < 5 | < 20 |
